The source of these data is patent publication US7691825B2, “Adenosine A2B receptor agonists” (King Pharmaceuticals Research and Development, Inc., priority 2006, dated 2010).

Series [1] deals with T1, hA2B receptors expressed in CHO cells (Homo sapiens, UniProt P29275).
T1 construct: expressed in transfected cells; host or cells: CHO cells
T1 sequence (P29275 1-332): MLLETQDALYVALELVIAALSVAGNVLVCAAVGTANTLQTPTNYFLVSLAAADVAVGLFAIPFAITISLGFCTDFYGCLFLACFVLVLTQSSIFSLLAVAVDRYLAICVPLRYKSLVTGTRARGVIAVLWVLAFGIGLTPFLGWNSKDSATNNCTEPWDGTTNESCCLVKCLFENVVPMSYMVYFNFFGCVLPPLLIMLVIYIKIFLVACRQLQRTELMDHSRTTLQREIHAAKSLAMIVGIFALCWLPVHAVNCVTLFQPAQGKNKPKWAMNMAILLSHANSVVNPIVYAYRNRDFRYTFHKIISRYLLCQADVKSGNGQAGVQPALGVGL
Briefly: cAMP assay hA2B CHO cells. As to conditions: for EC50: stimulation of cAMP levels, hA2B CHO cells, mean ± s.e. mean; for Selectivity hA1/hA2B: ratio hA1 Ki / hA2B EC50; for Selectivity hA2A/hA2B: ratio hA2A Ki / hA2B EC50; for Selectivity hA3/hA2B: ratio hA3 IC50 / hA2B EC50. In kind it is cell-based. As to the method:
The effects of the tested compounds may be evaluated in functional assays measuring the stimulatory capability of the ligands to increase cAMP levels in hA2B receptors expressed in CHO cells. This may done as described by Pastorin et al. in “Pyrazolo[4,3-e]-1,2,4-triazolo[1,5-c]pyrimidine derivatives as adenosine receptor antagonists.
(§1) For cell preparation CHO cells transfected with human A2B or A3 receptors are washed with phosphate-buffered saline and diluted trypsin, and centrifuged for 10 min at 200 g. […] After the preincubation time at 37° C., the examined ligands (1 nM-10 μM) are added to the mixture and incubated for a further 5 min. The reaction is terminated by the addition of cold 6% trichloroacetic acid (TCA). The TCA suspension is centrifuged at 2000 g for 10 min at 4° C. and the supernatant is extracted four times with water saturated diethyl ether. […] Samples of cyclic AMP standard (0-10 pmoles) are added to each test tube containing the incubation buffer (trizma base 0.1 mM, aminophylline 8.0 mM, 2-mercaptoethanol 6.0 mM, pH 7.4) and [^3H]cyclic AMP in total volume of 0.5 mL. The binding protein previously incubated at 4° C. for 150 min, and after the addition of charcoal is centrifuged at 2000 g for 10 min. The clear supernatant is counted in a Beckman scintillation counter.
(In general: Cyclic AMP is a second messenger, typically raised through Gs and lowered through Gi signalling.)

The target in series [2] is T2, hA1 receptors expressed in CHO cells (Homo sapiens, UniProt P30542).
T2 sequence (P30542 1-326): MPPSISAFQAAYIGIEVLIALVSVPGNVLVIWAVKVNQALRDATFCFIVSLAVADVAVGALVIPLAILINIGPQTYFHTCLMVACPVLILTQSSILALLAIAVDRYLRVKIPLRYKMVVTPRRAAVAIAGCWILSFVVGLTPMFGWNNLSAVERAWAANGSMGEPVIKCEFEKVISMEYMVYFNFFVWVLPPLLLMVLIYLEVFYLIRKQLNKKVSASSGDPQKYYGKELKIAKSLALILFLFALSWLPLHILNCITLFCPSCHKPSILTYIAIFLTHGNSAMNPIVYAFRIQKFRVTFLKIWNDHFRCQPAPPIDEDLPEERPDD
Briefly: [3H]CHA binding hA1 CHO cells.
Description: (§2) The cells are grown adherently and maintained in Dulbecco's Modified Eagles Medium with nutrient mixture F12 (DMEM/F12) without nucleosides, containing 10% fetal calf serum, penicillin (100 U/mL), streptomycin (100 μg/mL), L-glutamine (2 mM) and Geneticin (G418, 0.2 mg/mL) at 37° C. in 5% CO2/95% air. […] For membrane preparation the culture medium is removed and the cells are washed with PBS and scraped off T75 flasks in ice-cold hypotonic buffer (5 mM Tris HCl, 2 mM EDTA, pH 7.4). The cell suspension is homogenized and centrifuged for 30 min at 100,000×g. The membrane pellet is re-suspended in 50 mM Tris HCl buffer pH 7.4 and incubated with 2 UI/mL of adenosine deaminase for 30 min at 37° C.
(§3) Binding of 1 nM [^3H]—CHA to hA1CHO cells (50 μg of protein/assay) is performed using 50 mM Tris HCl buffer pH 7.4 and at least 6-8 different concentrations of agonists studied for an incubation time of 150 min at 25° C. […] Non-specific binding is determined in the presence of 10 μM of CHA and is about 20% of the total binding. […] Filter bound radioactivity is measured by scintillation spectrometry after addition of 5 mL of Aquassure.
(§4) All experimental data are expressed as the mean±standard error of the mean (s.e. mean) of three or four independent experiments performed in duplicate.

Series [3] has as its target T3, hA2A receptors expressed in CHO cells (Homo sapiens, UniProt P29274).
T3 construct: expressed in transfected cells; host or cells: CHO cells (stably transfected, per Klotz et al. 1998); membrane preparation
Briefly: [3H]CGS21680 binding hA2A CHO cells. The note with it: [3H]-CGS 21680, hA2A CHO cell membranes, 180 min at 25° C.; mean ± s.e. mean.
Description: as §2, §3, §4

Series [4] concerns the target T4, human A3 receptors in CHO cells (Homo sapiens, UniProt P0DMS8).
T4 construct: expressed in transfected cells; host or cells: CHO cells
T4 sequence (P0DMS8 1-318): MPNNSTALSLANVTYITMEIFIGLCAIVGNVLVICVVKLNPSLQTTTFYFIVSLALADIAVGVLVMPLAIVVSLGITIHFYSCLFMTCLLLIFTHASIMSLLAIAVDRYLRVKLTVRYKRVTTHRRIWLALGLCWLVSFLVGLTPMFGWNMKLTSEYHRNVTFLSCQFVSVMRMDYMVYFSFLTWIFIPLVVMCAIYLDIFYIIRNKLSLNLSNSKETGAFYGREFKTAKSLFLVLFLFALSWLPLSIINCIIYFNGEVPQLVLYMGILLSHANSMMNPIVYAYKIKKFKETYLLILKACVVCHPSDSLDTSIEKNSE
Briefly: cAMP assay hA3 CHO cells. The series is classed as cell-based. The note with it: cyclic AMP assay, mean ± s.e. mean. As to the method:
as §1

“And” between values parts separate entries of the source, which are not always exact repeats. Identical values can stand only once. Like-named read-outs stand apart in the source and are kept apart here. Bounds are passed on as bounds.

T3 sequence (P29274 whole entry): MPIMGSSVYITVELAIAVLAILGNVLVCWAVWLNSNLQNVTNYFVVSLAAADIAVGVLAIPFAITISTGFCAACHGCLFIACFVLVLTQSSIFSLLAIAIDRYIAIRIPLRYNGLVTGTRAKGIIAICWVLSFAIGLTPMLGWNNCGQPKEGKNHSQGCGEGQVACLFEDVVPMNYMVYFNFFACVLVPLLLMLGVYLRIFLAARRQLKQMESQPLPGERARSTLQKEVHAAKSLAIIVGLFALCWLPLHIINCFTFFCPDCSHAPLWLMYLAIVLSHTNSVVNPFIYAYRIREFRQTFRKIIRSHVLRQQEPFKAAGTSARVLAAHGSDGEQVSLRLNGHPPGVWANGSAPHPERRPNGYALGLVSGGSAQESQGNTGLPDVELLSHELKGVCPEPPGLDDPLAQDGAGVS

As for `CCNC(=O)[C@H]1O[C@@H](n2cnc3c(NNC(=O)c4ccccc4)ncnc32)[C@H](O)[C@@H]1O` [Compound 9b, (2S, 3S, 4R, 5R)-5-[6-(N′-Benzoyl-hydrazino)-9H-purin-9-yl]-3,4-dihydroxy-tetrahydrofuran-2 carboxylic acid ethylamide], the melting point (as a rule, the temperature, or range, at which the solid turns liquid) is 174 to 175 °C and 173 to 174 °C. Besides, in series [1], the EC50 – broadly, the concentration that produces a half-maximal response – is over 1 µM. In series [2], the inhibition constant Ki (commonly the equilibrium dissociation constant of an inhibitor or competing ligand from its target) was over 1 µM. In series [3], this compound had a Ki of over 1 µM. The IC50 (commonly the midpoint of a concentration-inhibition curve) in series [4] was over 1 µM.

For `CCNC(=O)[C@H]1O[C@@H](n2cnc3c(NNC(=O)c4ccc(Cl)cc4)ncnc32)[C@H](O)[C@@H]1O` [Compound 10b, (2S, 3S, 4R, 5R)-5-{6-[N′-(4-Chlorobenzoyl)-hydrazino]-9H-purin-9-yl}-3,4-dihydroxy-tetrahydrofuran-2-carboxylic acid ethylamide], the melting point fell in the range of 188 to 189 °C. Besides, in series [1], the half-maximal effective concentration (EC50) was over 1 µM. Also, in series [2], the Ki was over 1 µM. Further, in series [3], the Ki was over 1 µM. In addition, the IC50 in series [4] was over 1 µM.

As for `CCNC(=O)[C@H]1O[C@@H](n2cnc3c(NNC(=O)c4cccnc4)ncnc32)[C@H](O)[C@@H]1O` [Compound 11b, (2S, 3S, 4R, 5R)-3,4-Dihydroxy-5-{6-[N′-(pyridine-3-carbonyl)-hydrazino]-9H-purin-9-yl}-tetrahydrofuran-2-carboxylic acid ethylamide], the melting point was 170 °C. The compound also registered an EC50 in series [1] of over 1 µM. Moreover, the Ki in series [2] is over 1 µM. The Ki in series [3] is over 1 µM. The compound further yielded an IC50 in series [4] of over 1 µM.

`CCNC(=O)[C@H]1O[C@@H](n2cnc3c(NNC(=O)c4ccco4)ncnc32)[C@H](O)[C@@H]1O` [Compound 12b, (2S, 3S, 4R, 5R)-5-{6-[N′-(Furan-2-carbonyl)-hydrazino]-9H-purin-9-yl}-3,4-dihydroxy-tetrahydrofuran-2-carboxylic acid ethylamide] gave a melting point of 233 to 234 °C. Moreover, in series [1], the “Selectivity hA1/hA2B” value was over 12.19, the “Selectivity hA2A/hA2B” value was over 12.19, the “Selectivity hA3/hA2B” value is reported as over 12.19 and the EC50 turned out to be 0.082 ± 0.01 µM. The Ki in series [2] was over 1 µM. In addition, the Ki in series [3] is over 1 µM. This compound also had an IC50 in series [4] of over 1 µM.

As for `CCNC(=O)[C@H]1O[C@@H](n2cnc3c(NNC(=O)c4ccc(Br)o4)ncnc32)[C@H](O)[C@@H]1O` [Compound 13b, (2S, 3S, 4R, 5R)-5-{6-[N′-(5-Bromo-furan-2-carbonyl)-hydrazino]-9H-purin-9-yl}-3,4-dihydroxy-tetrahydrofuran-2-carboxylic acid ethylamide], the melting point came out at 171 °C.

Consider `CCNC(=O)[C@H]1O[C@@H](n2cnc3c(NNC(=O)c4ccc(C)o4)ncnc32)[C@H](O)[C@@H]1O` [Compound 14b, (2S, 3S, 4R, 5R)-3,4-Dihydroxy-5-{6-[N′-(5-methyl-furan-2-carbonyl)-hydrazino]-9H-purin-9-yl}-tetrahydrofuran-2-carboxylic acid ethylamide], for which the melting point lay within 154 to 155 °C. Besides, in series [1], the “Selectivity hA1/hA2B” value turned out to be 3.08, the “Selectivity hA2A/hA2B” value turned out to be 5.73, the “Selectivity hA3/hA2B” value is given as over 4.40 and the EC50 stood at 0.227 ± 0.018 µM. For the same compound, the inhibition constant (Ki) in series [2] (read-out: [3H]CHA binding hA1 CHO cells Ki, 1 nM [3H]-CHA, hA1 CHO cell membranes, 150 min at 25° C., mean ± s.e. mean) came to 0.7 ± 0.025 µM. In series [3], this compound came in with a Ki of 1.3 ± 0.05 µM. Further, the IC50 in series [4] was over 1 µM.

Compound `CCNC(=O)[C@H]1O[C@@H](n2cnc3c(NNC(=O)c4nc([N+](=O)[O-])cn4C)ncnc32)[C@H](O)[C@@H]1O` [Compound 15b, (2S, 3S, 4R, 5R)-3,4-Dihydroxy-5-{6-[N′-(1-methyl-4-nitro-1H-imidazole-2-carbonyl)-hydrazino]-9H-purin-9-yl}-tetrahydrofuran-2-carboxylic acid ethylamide] displayed a melting point of 169 to 170 °C. In addition, in series [1], the EC50 was over 1 µM. In addition, in series [2], the Ki is over 1 µM. Further, the Ki in series [3] was over 1 µM. In series [4], this compound displayed an IC50 of over 1 µM.

As to `CCNC(=O)[C@H]1O[C@@H](n2cnc3c(NNC(=O)c4ccc(C)s4)ncnc32)[C@H](O)[C@@H]1O` [Compound 16b, (2S, 3S, 4R, 5R)-3,4-Dihydroxy-5-{6-[N′-(5-methyl-thiophene-2-carbonyl)-hydrazino]-9H-purin-9-yl}-tetrahydrofuran-2-carboxylic acid ethylamide], the melting point was in the range of 153 to 154 °C. For the same compound, in series [1], the “Selectivity hA1/hA2B” value is given as over 3.66, the “Selectivity hA2A/hA2B” value is over 3.66, the “Selectivity hA3/hA2B” value is given as over 3.66 and the EC50 was 0.273 ± 0.012 µM. This compound also returned a Ki in series [2] of over 1 µM. In addition, the Ki in series [3] was over 1 µM. For the same compound, in series [4], the IC50 is over 1 µM.

Compound `CCNC(=O)[C@H]1O[C@@H](n2cnc3c(NNC(=O)c4ccccc4)nc(Cl)nc32)[C@H](O)[C@@H]1O` [Compound 17b, (2S, 3S, 4R, 5R)-5-[6{N′-Benzoyl-hydrazino)-2-chloro-9H-purin-9-yl}-3,4-dihydroxy-tetrahydrofuran-2-carboxylic acid ethylamide] came in with a melting point of 253 to 254 °C. For the same compound, the EC50 in series [1] was over 1 µM. In series [2], this compound came in with a Ki of over 1 µM. Besides, in series [3], the Ki is over 1 µM. In addition, the IC50 in series [4] is over 1 µM.

Compound `CCNC(=O)[C@H]1O[C@@H](n2cnc3c(NNC(=O)c4ccco4)nc(Cl)nc32)[C@H](O)[C@@H]1O` [Compound 18b, (2S, 3S, 4R, 5R)-5-{2-Chloro-6-[N′-(furan-2-carbonyl)-hydrazino]-9H-purin-9-yl}-3,4-dihydroxy-tetrahydrofuran-2-carboxylic acid ethylamide] came in with a melting point of 269 to 270 °C. For the same compound, in series [1], the “Selectivity hA1/hA2B” value is on record as over 4.76; the “Selectivity hA2A/hA2B” value is listed as over 4.76; the “Selectivity hA3/hA2B” value is reported as over 4.76; the midpoint of the response, the EC50, lay at 0.21 ± 0.013 µM. For the same compound, the Ki in series [2] is over 1 µM. Moreover, in series [3], the Ki is over 1 µM. Moreover, the IC50 in series [4] is over 1 µM.

In the case of `CCNC(=O)[C@H]1O[C@@H](n2cnc3c(NNC(=O)c4ccc(C)s4)nc(Cl)nc32)[C@H](O)[C@@H]1O` [Compound 19b, (2S, 3S, 4R, 5R)-5-{2-Chloro-6-[N′-(5-methyl-thiophene-2-carbonyl)-hydrazino]-9H-purin-9-yl}-3,4-dihydroxy-tetrahydrofuran-2-carboxylic acid ethylamide], the melting point worked out at 156 °C. Besides, in series [1], the “Selectivity hA1/hA2B” value was over 5.71, the “Selectivity hA2A/hA2B” value is over 5.71, the “Selectivity hA3/hA2B” value is over 5.71 and the EC50 was found to be 0.175 ± 0.02 µM. Further, the Ki in series [2] was over 1 µM. Besides, the Ki in series [3] was over 1 µM. The compound further came in with an IC50 in series [4] of over 1 µM.
